Laboratory results: ChEMBL document CHEMBL1143572, “Virtual screening workflow development guided by the "receiver operating characteristic" curve approach. Application to high-throughput docking on metabotropic glutamate receptor subtype 4” (J Med Chem, 2005)

These molecules were tested against T1, Metabotropic glutamate receptor 4 (Rattus norvegicus, UniProt P31423) (assay: Stimulation of [3H]phosphatidylinositol accumulation by rat Metabotropic glutamate receptor 4 co-expressed with Gqi9 protein in HEK 293 cells; Inactive).
T1 sequence (P31423 whole entry): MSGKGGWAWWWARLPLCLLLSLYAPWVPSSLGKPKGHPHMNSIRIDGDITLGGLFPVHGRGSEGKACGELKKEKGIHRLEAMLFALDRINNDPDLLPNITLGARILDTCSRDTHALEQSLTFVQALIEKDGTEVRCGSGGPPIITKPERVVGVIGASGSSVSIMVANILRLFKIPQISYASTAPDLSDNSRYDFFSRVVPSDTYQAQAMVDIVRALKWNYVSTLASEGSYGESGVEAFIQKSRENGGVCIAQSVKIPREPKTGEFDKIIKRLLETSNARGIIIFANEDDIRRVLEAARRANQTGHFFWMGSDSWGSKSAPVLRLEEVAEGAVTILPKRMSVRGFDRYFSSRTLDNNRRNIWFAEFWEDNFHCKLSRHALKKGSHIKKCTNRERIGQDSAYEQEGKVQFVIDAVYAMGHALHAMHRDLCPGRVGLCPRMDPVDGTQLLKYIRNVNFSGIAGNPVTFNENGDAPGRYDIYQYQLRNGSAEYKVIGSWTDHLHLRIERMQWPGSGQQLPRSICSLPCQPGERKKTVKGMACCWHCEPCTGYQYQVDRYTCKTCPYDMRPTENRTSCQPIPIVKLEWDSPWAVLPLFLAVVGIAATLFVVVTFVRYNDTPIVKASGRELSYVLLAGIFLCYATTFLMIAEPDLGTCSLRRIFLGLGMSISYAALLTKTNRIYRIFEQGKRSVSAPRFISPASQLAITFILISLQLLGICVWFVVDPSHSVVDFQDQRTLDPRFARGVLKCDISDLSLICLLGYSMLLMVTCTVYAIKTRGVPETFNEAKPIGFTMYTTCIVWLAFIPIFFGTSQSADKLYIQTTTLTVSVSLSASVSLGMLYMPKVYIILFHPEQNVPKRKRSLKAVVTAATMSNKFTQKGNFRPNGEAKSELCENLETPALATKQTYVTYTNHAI
Assay type: functional, cell-based, HEK293

Question: Which EC50 does the source give for `N[C@@]1(C(=O)O)CC[C@H](C(=O)O)C1` here?
Answer: > 100 µM

Question: `N[C@@]1(C(=O)O)CN[C@@H](C(=O)O)C1` was tested. Which EC50 did it give?
Answer: > 100 µM

Question: With `N[C@@H](CCn1oc(=O)[nH]c1=O)C(=O)O` as the molecule, how does the EC50 read?
Answer: > 100 µM

Question: Which EC50 does the source give for `N[C@H](C(=O)O)C12CC(C(=O)O)(C1)C2` here?
Answer: > 100 µM

Question: Which EC50 does the source give for `N[C@H](Cn1oc(=O)[nH]c1=O)C(=O)O` here?
Answer: > 100 µM

Question: With `N[C@@]1(C(=O)O)CC[C@H]2[C@H](C(=O)O)[C@H]21` [EGLUMETAD] as the molecule, how does the EC50 read?
Answer: > 100 µM

Question: With `N[C@H](C(=O)O)c1cc(O)cc(O)c1` as the molecule, how does the EC50 read?
Answer: > 100 µM

Question: For `N[C@@]1(C(=O)O)CC[C@@H](C(=O)O)C1`, which EC50 is on record?
Answer: > 100 µM

Question: Which EC50 does the source give for `N[C@H](C(=O)O)c1ccc(C(=O)O)c(O)c1` here?
Answer: > 100 µM

Question: `C=C(C[C@@H](N)C(=O)O)C(=O)O` was tested. Which EC50 did it give?
Answer: > 100 µM

Question: How did the EC50 turn out when `C[C@@H](C[C@@H](N)C(=O)O)C(=O)O` was run?
Answer: > 100 µM

The molecules below were run against T1, Metabotropic glutamate receptor 4 (assay: Stimulation of [3H]phosphatidylinositol accumulation by rat Metabotropic glutamate receptor 4 co-expressed with Gqi9 protein in HEK 293 cells; Active).
Assay type: functional, cell-based, HEK293

Question: How did the EC50 turn out when `N[C@@H](CCP(=O)(O)O)C(=O)O` was run?
Answer: < 100 µM

Question: For `N[C@@H](CCS(=O)(=O)O)C(=O)O`, which EC50 is on record?
Answer: < 100 µM

Question: How did the EC50 turn out when `N[C@@]1(C(=O)O)C[C@H](C(=O)O)[C@H](C(=O)O)C1` was run?
Answer: < 100 µM

Question: Which EC50 does the source give for `N[C@H](C(=O)O)[C@@H]1C[C@H]1C(=O)O` here?
Answer: < 100 µM

Question: For `N[C@H](C(=O)O)c1ccc(P(=O)(O)O)cc1`, which EC50 is on record?
Answer: < 100 µM

Question: For `NC1(C(=O)O)C[C@H](C(=O)O)[C@@H](C(=O)O)C1`, which EC50 is on record?
Answer: < 100 µM

Question: `N[C@@H](COP(=O)(O)O)C(=O)O` [DEXFOSFOSERINE] was tested. Which EC50 did it give?
Answer: < 100 µM

Question: For `N[C@H](CCC(=O)O)C(=O)O` [D-GLUTAMATE], which EC50 is on record?
Answer: < 100 µM

Question: Which EC50 does the source give for `NC1(C(=O)O)CC2CC1C2C(=O)O` (centres undefined) here?
Answer: < 100 µM

Question: For `N[C@H](C(=O)O)c1ccc(C(=O)O)c(C(=O)O)c1`, which EC50 is on record?
Answer: < 100 µM

Each molecule was assayed against T1, Metabotropic glutamate receptor 4 (assay: Effective concentration against Metabotropic glutamate receptor 4).

Question: How did the EC50 turn out when `N[C@@H](CCP(=O)(O)O)C(=O)O` was run?
Answer: 0.2 µM

The molecules below were run against T1, Metabotropic glutamate receptor 4 (assay: Stimulation od [3H]phosphatidylinositol accumulation by rat Metabotropic glutamate receptor 4 co-expressed with Gqi9 protein in HEK 293 cells).
Assay type: functional, cell-based, HEK293

Question: `N[C@H](C(=O)O)C12CC(C(=O)O)(C1)C2` was tested. Which EC50 did it give?
Answer: > 1000 µM

What follows are molecules tested against Metabotropic glutamate receptor 4 (Rattus norvegicus, UniProt P31423, D309A) (assay: Effective concentration against D309A mutant Metabotropic glutamate receptor 4).
Sequence of Metabotropic glutamate receptor 4 (Rattus norvegicus, UniProt P31423, D309A) (P31423 whole entry, looked up, stated change not applied): as the sequence (P31423 whole entry) above

Question: How did the EC50 turn out when `N[C@@H](CCP(=O)(O)O)C(=O)O` was run?
Answer: 129 µM
